# According to PubChem BioAssay (NCI):
#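 GI50 marks 50% less growth. TGI is the concentration that stops growth completely.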
# How the values were obtained:
# Experiment in all cases: growth of human tumour cells (NCI), 384-well format
# EKVX NSCLC = test system: EKVX NSCLC
# RXF 393 renal = test system: RXF 393 renal
# RPMI-8226 leukemia = test system: RPMI-8226 leukemia
# UO-31 renal = test system: UO-31 renal
# NCI-H460 NSCLC = test system: NCI-H460 NSCLC
# OVCAR-3 ovarian = test system: OVCAR-3 ovarian
# M14 melanoma = test system: M14 melanoma
# COLO 205 colon = test system: COLO 205 colon
# SF-539 CNS = test system: SF-539 CNS
# IGROV1 ovarian = test system: IGROV1 ovarian
# SW-620 colon = test system: SW-620 colon
# HCT-116 colon = test system: HCT-116 colon
# SF-295 CNS = test system: SF-295 CNS
smiles,measurement,setting,value
NC(=O)c1cccc2cn(-c3ccc([C@@H]4CCCNC4)cc3)nc12,GI50,EKVX NSCLC,17.7 µM
same,TGI,EKVX NSCLC,34.7 µM
same,GI50,RXF 393 renal,16.7 µM
same,TGI,RXF 393 renal,30.5 µM
same,GI50,RPMI-8226 leukemia,9.26 µM
same,TGI,RPMI-8226 leukemia,23.1 µM
same,GI50,UO-31 renal,14 µM
same,TGI,UO-31 renal,27.7 µM
same,GI50,NCI-H460 NSCLC,3.06 µM
same,TGI,NCI-H460 NSCLC,13.4 µM
same,GI50,OVCAR-3 ovarian,18.3 µM
same,TGI,OVCAR-3 ovarian,33 µM
same,GI50,M14 melanoma,4.68 µM
same,TGI,M14 melanoma,15.8 µM
same,GI50,COLO 205 colon,11 µM
same,TGI,COLO 205 colon,23.2 µM
same,GI50,SF-539 CNS,5.66 µM
same,TGI,SF-539 CNS,18.2 µM
same,GI50,IGROV1 ovarian,12.9 µM
same,TGI,IGROV1 ovarian,27.2 µM
same,GI50,SW-620 colon,6.05 µM
same,TGI,SW-620 colon,22.4 µM
same,GI50,HCT-116 colon,4.73 µM
same,TGI,HCT-116 colon,18.3 µM
same,GI50,SF-295 CNS,2.64 µM
same,TGI,SF-295 CNS,7.79 µM
